Tests used:
Factor Xa = Factor Xa (Homo sapiens, UniProt P00742); assay: Chromogenic kinetic enzyme assay, Factor Xa; format: biochemical
HGFA = target: T1, HGFA (Homo sapiens, UniProt Q04756); assay: Fluorogenic kinetic enzyme inhibitor assay, HGFA; format: biochemical
T1 sequence (Q04756 373-655): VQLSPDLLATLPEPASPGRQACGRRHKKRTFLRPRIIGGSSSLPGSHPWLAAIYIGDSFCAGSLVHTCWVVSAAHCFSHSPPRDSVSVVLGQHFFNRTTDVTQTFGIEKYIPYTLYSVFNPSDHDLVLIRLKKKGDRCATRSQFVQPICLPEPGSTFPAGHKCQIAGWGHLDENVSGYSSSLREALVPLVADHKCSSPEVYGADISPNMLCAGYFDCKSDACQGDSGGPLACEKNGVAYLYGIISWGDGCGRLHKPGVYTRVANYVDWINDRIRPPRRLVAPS

TMPRSS2 = TMPRSS2 (Homo sapiens, UniProt O15393, Q253D/R252D/R255K/S251D/S254D); assay: Fluorogenic kinetic enzyme inhibitor assay, TMPRSS2; format: biochemical
Sequence of TMPRSS2 (O15393 109-492 S251D/R252D/Q253D/S254D/R255K limits assumed): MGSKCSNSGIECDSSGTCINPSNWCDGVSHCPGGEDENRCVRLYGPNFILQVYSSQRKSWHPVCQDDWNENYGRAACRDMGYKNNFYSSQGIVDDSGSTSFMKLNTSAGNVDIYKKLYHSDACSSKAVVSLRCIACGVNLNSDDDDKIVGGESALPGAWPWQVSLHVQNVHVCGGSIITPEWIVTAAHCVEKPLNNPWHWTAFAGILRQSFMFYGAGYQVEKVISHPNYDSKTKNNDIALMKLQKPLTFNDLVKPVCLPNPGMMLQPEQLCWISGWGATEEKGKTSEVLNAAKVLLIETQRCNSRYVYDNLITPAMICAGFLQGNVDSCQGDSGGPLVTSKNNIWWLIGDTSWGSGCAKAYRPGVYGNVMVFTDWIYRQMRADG

thrombin = thrombin (Homo sapiens, UniProt P00734); assay: Chromogenic kinetic enzyme assay, thrombin; format: biochemical
[1] = system: chimeric VSV SARS-CoV-2 virus; details: chimeric VSV virus
hepsin = hepsin (Homo sapiens, UniProt P05981); assay: Fluorogenic kinetic enzyme inhibitor assay, hepsin; format: biochemical
Sequence of hepsin (P05981 163-417 limits assumed): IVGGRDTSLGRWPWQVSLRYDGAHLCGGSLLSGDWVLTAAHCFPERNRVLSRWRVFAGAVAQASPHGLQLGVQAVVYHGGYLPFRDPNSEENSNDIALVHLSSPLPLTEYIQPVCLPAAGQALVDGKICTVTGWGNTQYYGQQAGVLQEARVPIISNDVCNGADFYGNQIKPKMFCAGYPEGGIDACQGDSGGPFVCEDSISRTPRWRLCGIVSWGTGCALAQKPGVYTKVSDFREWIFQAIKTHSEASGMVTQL
Sequence of hepsin (P05981 45-162 partner limits assumed): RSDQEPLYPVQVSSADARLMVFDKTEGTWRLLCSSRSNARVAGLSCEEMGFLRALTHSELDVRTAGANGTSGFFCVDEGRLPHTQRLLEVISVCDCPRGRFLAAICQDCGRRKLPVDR

matriptase = target: T2, matriptase (Homo sapiens, UniProt Q9Y5Y6); assay: Fluorogenic kinetic enzyme inhibitor assay, matriptase; format: biochemical
T2 sequence (Q9Y5Y6 615-855): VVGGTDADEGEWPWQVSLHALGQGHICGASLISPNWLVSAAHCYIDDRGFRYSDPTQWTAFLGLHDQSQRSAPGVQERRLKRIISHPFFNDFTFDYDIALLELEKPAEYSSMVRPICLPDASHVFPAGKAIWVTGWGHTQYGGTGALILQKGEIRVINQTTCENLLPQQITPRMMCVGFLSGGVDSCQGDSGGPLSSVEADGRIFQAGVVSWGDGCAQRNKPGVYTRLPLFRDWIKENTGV

[2] = system: influenza A virus strain A/California/4/2009 (pdmH1N1); details: for H1N1 titer Log fold reduction (1 μM): virus strain A/California/4/2009 (pdmH1N1, 72 h, 1 μM); for H1N1 titer Log fold reduction (10 μM): virus strain A/California/4/2009 (pdmH1N1, 72 h, 10 μM)

Sequence of Factor Xa (P00742 235-488 limits assumed): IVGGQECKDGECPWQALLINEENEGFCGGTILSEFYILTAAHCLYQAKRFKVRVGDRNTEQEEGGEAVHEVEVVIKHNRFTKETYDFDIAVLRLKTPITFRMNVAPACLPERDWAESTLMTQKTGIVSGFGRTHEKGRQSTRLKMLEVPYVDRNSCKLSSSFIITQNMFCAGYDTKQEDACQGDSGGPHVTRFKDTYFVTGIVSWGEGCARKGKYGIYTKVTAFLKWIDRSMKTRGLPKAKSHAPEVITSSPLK
Sequence of Factor Xa (P00742 41-179 partner limits assumed): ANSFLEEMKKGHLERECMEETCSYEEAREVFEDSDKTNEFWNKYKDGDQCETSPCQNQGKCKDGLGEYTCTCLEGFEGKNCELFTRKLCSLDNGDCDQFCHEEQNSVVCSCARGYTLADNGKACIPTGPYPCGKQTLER

CC[C@H](C)[C@H](NC(C)=O)C(=O)N[C@@H](CCC(N)=O)C(=O)N[C@@H](Cc1ccccc1)C(=O)N[C@@H](CCCNC(=N)N)C(=O)c1nc2ccccc2s1 [MM3116, Ac-IQFR-kbt]
IC50 (Factor Xa): 792 nM | IC50 (HGFA): 30 nM | IC50 (TMPRSS2): 1.7 nM | IC50 (thrombin): > 20000 nM | EC50 [1]: 3.6 nM | IC50 (hepsin): 0.14 nM | IC50 (matriptase): 0.92 nM

CC[C@H](C)[C@H](NC(C)=O)C(=O)N[C@@H](CCC(N)=O)C(=O)N[C@@H](CO)C(=O)N[C@@H](CCCNC(=N)N)C(=O)c1nc2ccccc2s1 [MM3177, Ac-IQSR-kbt]
IC50 (Factor Xa): 1730 nM | IC50 (HGFA): 19900 nM | IC50 (TMPRSS2): 4.5 nM | IC50 (thrombin): > 20000 nM | EC50 [1]: 36 nM | IC50 (hepsin): 2.4 nM | IC50 (matriptase): 1.3 nM

CC[C@H](C)[C@H](NC(C)=O)C(=O)N[C@@H](CCC(N)=O)C(=O)N[C@@H](C)C(=O)N[C@@H](CCCNC(=N)N)C(=O)c1nc2ccccc2s1 [MM3178, Ac-IQAR-kbt]
IC50 (Factor Xa): 170 nM | IC50 (HGFA): > 20000 nM | IC50 (TMPRSS2): 0.23 nM | IC50 (thrombin): > 20000 nM | EC50 [1]: 11 nM | IC50 (hepsin): 1.3 nM | H1N1 Fold inhibition @ 0.1 μM [2]: 2 | H1N1 Fold inhibition @ 1 μM [2]: 91 | H1N1 Fold inhibition @ 10 μM [2]: 238 | H1N1 titer Log fold reduction (1 μM) [2]: 2.0 | H1N1 titer Log fold reduction (10 μM) [2]: 2.4 | IC50 (matriptase): 0.1 nM

CC[C@H](C)[C@H](NC(C)=O)C(=O)N[C@@H](CCC(N)=O)C(=O)N[C@H](C(=O)N[C@H](CCCNC(=N)N)C(=O)c1nc2ccccc2s1)C(C)C [MM3180-1, Ac-IQVdR-kbt]
IC50 (Factor Xa): > 20000 nM | IC50 (HGFA): 14600 nM | IC50 (TMPRSS2): 2.89 nM | IC50 (thrombin): > 20000 nM | IC50 (hepsin): 1.72 nM | IC50 (matriptase): 22.9 nM

CC[C@H](C)[C@H](NC(C)=O)C(=O)N[C@@H](CCC(N)=O)C(=O)N[C@H](C(=O)N[C@@H](CCCNC(=N)N)C(=O)c1nc2ccccc2s1)[C@@H](C)O [MM3186, Ac-IQTR-kbt]
IC50 (Factor Xa): > 20000 nM | IC50 (HGFA): 18400 nM | IC50 (TMPRSS2): 0.17 nM | IC50 (thrombin): > 20000 nM | EC50 [1]: 19 nM | IC50 (hepsin): 0.98 nM | IC50 (matriptase): 16 nM

CC[C@H](C)[C@H](NC(C)=O)C(=O)N[C@@H](CCC(N)=O)C(=O)N[C@@H](Cc1c[nH]c2ccccc12)C(=O)N[C@@H](CCCNC(=N)N)C(=O)c1nc2ccccc2s1 [MM3187, Ac-IQWR-kbt]
IC50 (Factor Xa): 129 nM | IC50 (HGFA): 1450 nM | IC50 (TMPRSS2): 2.2 nM | IC50 (thrombin): > 20000 nM | EC50 [1]: 22 nM | IC50 (hepsin): 0.32 nM | IC50 (matriptase): 1.2 nM

CC[C@H](C)[C@H](NC(C)=O)C(=O)N[C@H](Cc1c[nH]c2ccccc12)C(=O)N[C@@H](Cc1ccccc1)C(=O)N[C@@H](CCCNC(=N)N)C(=O)c1nc2ccccc2s1 [MM4038, Ac-IdWFR-kbt]
IC50 (HGFA): 66 nM | IC50 (TMPRSS2): 0.04 nM | IC50 (thrombin): > 20000 nM | EC50 [1]: 226 nM | IC50 (hepsin): 12 nM | H1N1 titer Log fold reduction (1 μM) [2]: 2.1 | H1N1 titer Log fold reduction (10 μM) [2]: 3.0 | IC50 (matriptase): 25 nM

From paper doi:10.1101/2025.05.09.652710v1 (bioRxiv, 2025)
